# Patent publication US5714594A, “cDNA cloning and expression of human liver estrogen sulfotransferase” (Mayo Foundation for Medical Education and Research, priority 1994, dated 1998)
# B1: human liver EST (Homo sapiens) (protein)
# chain: MNSELDYYEKFEEVHGILMYKDFVKYWDNVEAFQARPDDLVIATYPKSGTTWVSEIVYMIYKEGDVEKCKEDVIFNRIPFLECRKENLMNGVKQLDEMNSPRIVKTHLPPELLPASFWEKDCKIIYLCRNAKDVAVSFYYFFLMVAGHPNPGSFPEFVEKFMQGQVPYGSWYKHVKSWWEKGKSPRVLFLFYEDLKEDIRKEVIKLIHFLERKPSEELVDRIIHHTSFQEMKNNPSTNYTTLPDEIMNQKLSPFMRKGITGDWKNHFTVALNEKFDKHYEQQMKESTLKFRTEI
# notes: expressed in transfected cells; host or cells: COS-1 cells, vector p91023(B); 100,000×g high-speed supernatant
# B2: human liver DHEA ST (Homo sapiens) (protein)
# chain: MSDDFLWFEGIAFPTMGFRSETLRKVRDEFVIRDEDVIILTYPKSGTNWLAEILCLMHSKGDAKWIQSVPIWERSPWVESEIGYTALSETESPRLFSSHLPIQLFPKSFFSSKAKVIYLMRNPRDVLVSGYFFWKNMKFIKKPKSWEEYFEWFCQGTVLYGSWFDHIHGWMPMREEKNFLLLSYEELKQDTGRTIEKICQFLGKTLEPEELNLILKNSSFQSMKENKMSNYSLLSVDYVVDKAQLLRKGVSGDWKNHFTVAQAEDFDKLFQEKMADLPRELFPWE
# notes: expressed in transfected cells; host or cells: COS-1 cells; high-speed supernatant
# Legend:
# human liver EST [1] = target: T1, human liver EST (Homo sapiens, UniProt P49888); assay: ST activities in high-speed supernatants of COS-1 cells transfected with human liver EST cDNA; format: biochemical; design: expressed in transfected cells; host or cells: COS-1 cells, vector p91023(B); 100,000×g high-speed supernatant; conditions: substance is the sulfate acceptor substrate; transfected COS-1 cell preparation; 1 unit = 1 nmol sulfated product per hour at 37° C.
# T1 sequence (P49888 1-294): B1 chain
# Description: B. Expression in COS-1 cells. COS-1 cells were transfected with an EST cDNA expression construct in the eukaryotic expression vector p91023(B) as well as with vector alone using the DEAE-dextran method (H. Luthman et al., Nucleic Acids Res., 11, 1295-1308 (1983)). After harvesting, cell pellets were washed with 5 ml of phosphate buffered saline (PBS) and were homogenized for 30 seconds in 2 ml of 5 mM potassium phosphate buffer, pH 6.5. The homogenates were centrifuged at 15,000×g for 15 minutes at 4° C., and supernatants were centrifuged at 100,000×g for 1 hour at 4° C. Five μl aliquots of the 100,000×g "high-speed supernatants" (HSS) were assayed for ST enzymatic activities.
# A. Sulfotransferase (ST) activities. The abilities of EST and DHEA ST to catalyze sulfation of various substrates were compared.
# One unit of enzyme activity represented the formation of 1 nmol of sulfated product per hour of incubation at 37° C. All assays were performed in triplicate, and values reported are averages of those three determinations. Protein concentrations were measured by the method of Bradford (Anal. Biochem., 72, 248-254 (1976)) with bovine serum albumin as a standard.
# human liver DHEA ST [2] = target: T2, human liver DHEA ST (Homo sapiens, UniProt Q06520); assay: DCNP inhibition of DHEA ST activity; format: biochemical; design: expressed in transfected cells; host or cells: COS-1 cells; high-speed supernatant; conditions: DHEA as substrate; expressed in COS-1 cells; read-out: mean DCNP concentration at which DHEA ST activity was 50% inhibited
# T2 sequence (Q06520 1-285): B2 chain
# Description: (§1) D. DCNP inhibition of EST activity. […] EST activity (using its preferred substrate, estrone) and DHEA ST activity (using its preferred substrate, DHEA) were 50% inhibited at very similar mean DCNP concentrations, 28±2.9 and 40±2.3 μM, respectively (FIG. 4B).
# human liver EST [3] = target: T1, human liver EST; assay: DCNP inhibition of EST activity; format: biochemical; design: expressed in transfected cells; host or cells: COS-1 cells, vector p91023(B); 100,000×g high-speed supernatant; conditions: estrone as substrate; expressed in COS-1 cells; read-out: mean DCNP concentration at which EST activity was 50% inhibited
# Description: as §1
# human liver DHEA ST [4] = target: T2, human liver DHEA ST; conditions: 75 mM NaCl; DHEA as substrate
# Description: (§2) Biochemical characterization of human EST were carried out using aliquots of HSS from COS-1 cells transfected with human liver EST cDNA. Parallel experiments were performed with human liver DHEA ST cDNA (D. M. Otterness et at., Mol. Pharmacol., 41, 865-872 (1992)) that had also been transiently expressed in COS-1 cells.
# (§3) E. Effect of NaCl concentration on EST activity.
# human liver EST [5] = target: T1, human liver EST; conditions: 150 mM NaCl; estrone as substrate; expressed in COS-1 cells
# Description: as §2, §3
# human EST = assay: Optimization of EST assay conditions and preferred substrate; format: biochemical; conditions: compared with estradiol-17β, ethinyl estradiol or DHEA
# Text: 1. Identification of the preferred substrate for human EST.
# 2. Optimization of EST assay conditions. Estrone was used as the substrate to determine optimal assay conditions and, subsequently, to characterize the properties of human EST.
# [6] = substrate: C[C@]12CC[C@@H]3c4ccc(O)cc4CC[C@H]3[C@@H]1CCC2=O; assay: Substrate kinetics (apparent Km) of ST activity, EST; format: biochemical, human; conditions: other: substance is the substrate; EST cDNA expressed in COS-1 cells
# Description: (§4) B. Kinetics of ST activity. Substrate kinetic studies designed to estimate apparent Km values were performed. Since human liver EST and DHEA ST can both catalyze the sulfation of steroids, these studies presented an opportunity to determine apparent Km values of the two enzymes with estrone and DHEA as substrates. Both enzyme preparations were tested with a range of estrone and DHEA concentrations. […] Apparent Km values were calculated by the method of Wilkinson (Biochem. J., 80, 324-332 (1961)) with a computer program written by Cleland (Nature, 198, 463-465 (1963)).
# [7] = substrate: C[C@]12CC[C@H](O)CC1=CC[C@@H]1[C@@H]2CC[C@]2(C)C(=O)CC[C@@H]12; assay: as above; format: biochemical, human; conditions: other: substance is the substrate; EST cDNA expressed in COS-1 cells
# Description: as §4
# human liver EST [8] = target: T1, human liver EST; assay: Thermal inactivation of ST activity, EST; format: physicochemical; design: expressed in transfected cells; host or cells: COS-1 cells, vector p91023(B); 100,000×g high-speed supernatant; conditions: preincubated 15 minutes; estrone as substrate; HSS from COS-1 cells
# Description: (§5) C. Thermal inactivation of ST activity. […] The temperatures at which 50% inactivation of EST (using its preferred substrate, estrone) and DHEA ST (using its preferred substrate, DHEA) activities occurred were 38.2±0.12 (mean±SEM) and 41.1±0.10° C., respectively (FIG. 4A). For the thermal inactivation experiment, HSS from COS-1 cells transfected with EST cDNA or DHEA ST cDNA was diluted 1:2 (v/v) with 5 mM potassium phosphate buffer, pH 6.5, preincubated at various temperatures for 15 minutes and was then placed on ice. An aliquot of the same preparation was kept on ice as a control. Each aliquot was then diluted further for assay of the ST activity being measured. Values for controls were determined at each temperature studied.
# [9] = substrate: C[C@]12CC[C@@H]3c4ccc(O)cc4CC[C@H]3[C@@H]1CCC2=O; assay: Substrate kinetics (apparent Km) of ST activity, DHEA ST; format: biochemical, human; conditions: other: substance is the substrate; DHEA ST cDNA expressed in COS-1 cells
# Description: as §4
# [10] = substrate: C[C@]12CC[C@H](O)CC1=CC[C@@H]1[C@@H]2CC[C@]2(C)C(=O)CC[C@@H]12; assay: as above; format: biochemical, human; conditions: other: substance is the substrate; DHEA ST cDNA expressed in COS-1 cells
# Description: as §4
# human liver DHEA ST [11] = target: T2, human liver DHEA ST; assay: Thermal inactivation of ST activity, DHEA ST; format: physicochemical; design: expressed in transfected cells; host or cells: COS-1 cells; high-speed supernatant; conditions: preincubated 15 minutes; DHEA as substrate; HSS from COS-1 cells
# Description: as §5
molecule,measurement,setting,value
O=[N+]([O-])c1ccc(O)cc1 [4-nitrophenol],sulfation catalyzed by the protein encoded by the human liver EST cDNA,human liver EST [1],5 units/mg protein
"O=[N+]([O-])c1cc(Cl)c(O)c(Cl)c1 [DCNP, 2,6-dichloro-4-nitrophenol]",IC50,human liver DHEA ST [2],40 ± 2.3 µM
same,IC50,human liver EST [3],28 ± 2.9 µM
"C[C@]12CC[C@H](O)CC1=CC[C@@H]1[C@@H]2CC[C@]2(C)C(=O)CC[C@@H]12 [DHEA, dehydroepiandrosterone]",sulfation catalyzed by the protein encoded by the human liver EST cDNA,human liver EST [1],2.3 units/mg protein
[Cl-].[Na+] [NaCl],peak activation of human liver DHEA ST,human liver DHEA ST [4],62%
same,increase of human liver EST activity,human liver EST [5],86%
NCCc1ccc(O)c(O)c1 [dopamine],sulfation catalyzed by the protein encoded by the human liver EST cDNA,human liver EST [1],not
C[C@]12CC[C@@H]3c4ccc(O)cc4CC[C@H]3[C@@H]1CCC2=O [estrone],"ST enzyme activity as sulfate acceptor substrate, compared with other substrates",human EST,greater ST enzyme activity
same,sulfation catalyzed by the protein encoded by the human liver EST cDNA,human liver EST [1],9 units/mg protein
B1,Km,[6],0.17 µM
same,Km,[7],0.85 µM
same,temperature at which 50% inactivation of EST activity occurred (mean±SEM),human liver EST [8],38.2±0.12 °C
B2,Km,[9],3.1 µM
same,Km,[10],2.6 µM
same,temperature at which 50% inactivation of DHEA ST activity occurred (mean±SEM),human liver DHEA ST [11],41.1±0.10 °C
